Patent US20260183301A1, “TREATING DISEASES AND DISORDERS WITH IRAK4-MODIFYING COMPOUNDS” (Curis, Inc., priority 2022, published 2026)

Tested on: NF-kB p-p50 S337
Experiment: Western blot of NF-kB p-p50 S337 in TF-1 (AML) cells
Type: cell-based
Conditions: 3 μM and 10 μM, 48 h, vs DMSO
Protocol: At 48 h post-treatment, cell lysates were obtained. Protein sample concentration was quantified and equal amount 20 μg of whole protein extract was loaded in each well of SDS-polyacrylamide gel. Cell extracts were separated by 10% SDS-PAGE, transferred to nitrocellulose membrane, and probed as indicated. The following antibodies were used for immunoblot analysis: NF-kB p-p50 S337 (Santa Cruz Biotechnology) and b-actin (Cell Signaling Technology).

## Cc1cc(-c2nc(C(=O)Nc3cc4oc(N5CCOCC5)nc4nc3N3CC[C@@H](O)C3)co2)ccn1 [Compound 1, emavusertib]
  expression of NF-kB p-p50 S337: downregulated
